Reference: US20110212108A1, “NEUREGULIN/ERBB SIGNALING AND INTEGRIN” (THE REGENTS OF THE UNIVERSITY OF CALIFORNIA, priority 2008, published 2011)

Assays:
[1] = tested on: CHO cells; test: ERK1/2 activation in CHO cells, Western blotting; assay type: cell-based, Chinese hamster; conditions: serum-starved
Method: FIG. 14. […] ErbB4 was stably expressed in CHO cells (designated ErbB4-CHO cells). ErbB4 was detected in a cell lysate of ErbB4-CHO cells by western blotting (top). Serum-starved CHO or ErbB4-CHO cells were stimulated with wt NRG1 (175-222) or the 3KE (175-222) mutant and ERK1/2 activation was measured by Western blotting.
CHO cells express endogenous ErbB2 and ErbB3, but no ErbB4. CHO cells that express ErbB4 were generated by transfecting ErbB4 expression vector (designated ErbB4-CHO). […] It is therefore believed that the direct binding of integrin […] the Ras-MAP kinase pathway in ErbB4-CHO cells.

[2] = tested on: Human M21 melanoma cells; test: M21 cell proliferation, MTS assay; assay type: cell-based; conditions: for Induction of proliferation of M21 melanoma cells: serum-starved overnight, cultured 48 h, MTS
Method: FIG. 8. […] The mutant NRG1 (175-222) suppressed proliferation induced by wt NRG1 (175-222) (dominant-negative effect). Human M21 melanoma cells were serum-starved overnight and cultured 48 h with wt or mutant GST-NRG1 (175-222). Cell proliferation was measured by using MTS assays. Data are shown as means+/−SE (n=3). […] For 3KE+WT, 10 ng/ml wt NRG1 (175-222) and mutant NRG1 (175-222) were added at the indicated concentrations. […] P<0.0001 between wt and 3KE, p=0.0001 between wt and 3KE+wt by 2-way ANOVA. There is no statistical significance between 3KE and 3KE+wt (p=0.58).
Cell proliferation: cells were starved by culturing DMEM with low-level FCS (e.g., 0.4%) overnight and then treated with the wt or mutant NRG1 (175-222) (up to 100 ng/ml). The cells were harvested in 15 min to 6 h after stimulation and cell lysates analyzed by western blotting with antibodies specific to signaling molecules. Alternatively, cells were cultured for 24-48 h after stimulation for testing proliferation or cell viability by MTS assays. Statistical analysis and calculation of kinetic constants were performed using Prism software (Graphpad).

[3] = tested on: estrogen-dependent and independent breast cancer cell lines; test: Growth of breast cancer cell lines; assay type: cell-based; conditions: several estrogen-dependent and independent lines
[4] = biological target: T1, Recombinant human ErbB3 Fc chimera (Homo sapiens, UniProt P21860); test: Competitive binding assay on immobilized ErbB3; conditions: biotin labeled WT 20 nM
T1 construct: Recombinant soluble ErbB3 Fc fusion protein was coated onto well of 96-well microtiter plate; purchased R&D Systems
T1 sequence (P21860 20-643 limits assumed, change not shown): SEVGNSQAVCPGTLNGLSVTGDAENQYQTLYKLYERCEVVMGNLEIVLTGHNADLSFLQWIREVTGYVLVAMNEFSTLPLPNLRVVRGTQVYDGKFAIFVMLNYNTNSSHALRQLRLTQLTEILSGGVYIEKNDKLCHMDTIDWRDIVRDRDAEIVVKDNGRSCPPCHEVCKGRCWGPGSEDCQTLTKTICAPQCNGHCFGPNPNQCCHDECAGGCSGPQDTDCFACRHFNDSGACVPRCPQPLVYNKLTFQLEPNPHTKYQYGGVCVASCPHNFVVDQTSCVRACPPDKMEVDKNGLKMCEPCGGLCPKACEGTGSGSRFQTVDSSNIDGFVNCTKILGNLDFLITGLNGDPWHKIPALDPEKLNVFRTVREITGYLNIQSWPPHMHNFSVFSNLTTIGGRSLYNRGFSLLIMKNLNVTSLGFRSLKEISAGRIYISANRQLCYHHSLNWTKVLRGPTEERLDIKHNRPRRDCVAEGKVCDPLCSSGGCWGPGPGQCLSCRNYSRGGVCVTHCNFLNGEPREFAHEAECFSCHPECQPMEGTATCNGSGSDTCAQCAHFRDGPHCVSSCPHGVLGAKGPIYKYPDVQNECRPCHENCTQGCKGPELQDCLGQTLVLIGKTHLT
Method: FIG. 20. The 3KE mutant of NRG1α (175-241) binds to ErbB3. a). Binding of the 3KE mutant of NRG1α (175-241) to recombinant ErbB3. Recombinant soluble ErbB3 Fc fusion protein (R&D system) was coated onto wells of 96-well microtiter plate (1 μg/ml). NRG1α (175-241) WT or 3KE (175-241) mutant was added to the wells and incubated for 1 h at room temperature. GST was used as a control. After washing the wells, bound GST NRG1α (175-241) was determined by using anti-GST antibody HRP conjugate. […] Competitive binding assay. Recombinant soluble ErbB3 Fc fusion protein was coated onto well of 96-well microtiter plate (1 μg/ml). Binding of biotin labeled NRG1α (175-241) WT (20 nM) in the presence of increasing concentrations of NRG1α (175-241) WT, 3KE (175-241) or GST. After washing the wells, bound biotin labeled NRG1α (175-241) WT was determined by using streptavidin HRP conjugate.
GST-fusion WT NRG1α (175-241) was biotinylated by using EZ-Link Sulfo-NHS-LC-Biotin (Pierce) as described in the manufacturer's instructions. Briefly, GST-fusion WT NRG1α (175-241) was incubated with sulfo-NHS-LCBiotin for 1 hour on ice, and remaining free sulfo-NHS-LC-Biotin was quenched with Tris-HCl buffer pH 8.0. Recombinant human ErbB3 Fc chimera (R&D Systems) was immobilized to wells of 96-well microtiter plate at 1 μg/ml coating concentration in 0.1 M NaHCO3, pH9.4 overnight at 4° C., and the remaining protein binding sites were blocked by incubating with 0.1% BSA. Wells were then incubated with biotinylated GST fusion NRG1α (175-241) in the presence of non-labeled GST, GST-WT NRG1α (175-241) or GST-3KE (175-241) for 3 h at room temperature. Bound biotinylated GST-fusion NRG1α (175-241) WT to wells was determined with streptavidin HRP conjugate and HRP substrate at 490 nm.

[5] = biological target: T2, αvβ3-ErbB3 complex (Homo sapiens, UniProt P05106+P06756+P21860); test: Co-immunoprecipitation of integrin αvβ3 and ErbB3 in MCF-7 cells; assay type: cell-based; conditions: for Co-precipitation of integrin β3 with ErbB3 in MCF-7 cells: 5 nM, 5-30 min
T2 construct: endogenous in cells; host or cells: MCF-7
T2 sequence (P21860 20-1342): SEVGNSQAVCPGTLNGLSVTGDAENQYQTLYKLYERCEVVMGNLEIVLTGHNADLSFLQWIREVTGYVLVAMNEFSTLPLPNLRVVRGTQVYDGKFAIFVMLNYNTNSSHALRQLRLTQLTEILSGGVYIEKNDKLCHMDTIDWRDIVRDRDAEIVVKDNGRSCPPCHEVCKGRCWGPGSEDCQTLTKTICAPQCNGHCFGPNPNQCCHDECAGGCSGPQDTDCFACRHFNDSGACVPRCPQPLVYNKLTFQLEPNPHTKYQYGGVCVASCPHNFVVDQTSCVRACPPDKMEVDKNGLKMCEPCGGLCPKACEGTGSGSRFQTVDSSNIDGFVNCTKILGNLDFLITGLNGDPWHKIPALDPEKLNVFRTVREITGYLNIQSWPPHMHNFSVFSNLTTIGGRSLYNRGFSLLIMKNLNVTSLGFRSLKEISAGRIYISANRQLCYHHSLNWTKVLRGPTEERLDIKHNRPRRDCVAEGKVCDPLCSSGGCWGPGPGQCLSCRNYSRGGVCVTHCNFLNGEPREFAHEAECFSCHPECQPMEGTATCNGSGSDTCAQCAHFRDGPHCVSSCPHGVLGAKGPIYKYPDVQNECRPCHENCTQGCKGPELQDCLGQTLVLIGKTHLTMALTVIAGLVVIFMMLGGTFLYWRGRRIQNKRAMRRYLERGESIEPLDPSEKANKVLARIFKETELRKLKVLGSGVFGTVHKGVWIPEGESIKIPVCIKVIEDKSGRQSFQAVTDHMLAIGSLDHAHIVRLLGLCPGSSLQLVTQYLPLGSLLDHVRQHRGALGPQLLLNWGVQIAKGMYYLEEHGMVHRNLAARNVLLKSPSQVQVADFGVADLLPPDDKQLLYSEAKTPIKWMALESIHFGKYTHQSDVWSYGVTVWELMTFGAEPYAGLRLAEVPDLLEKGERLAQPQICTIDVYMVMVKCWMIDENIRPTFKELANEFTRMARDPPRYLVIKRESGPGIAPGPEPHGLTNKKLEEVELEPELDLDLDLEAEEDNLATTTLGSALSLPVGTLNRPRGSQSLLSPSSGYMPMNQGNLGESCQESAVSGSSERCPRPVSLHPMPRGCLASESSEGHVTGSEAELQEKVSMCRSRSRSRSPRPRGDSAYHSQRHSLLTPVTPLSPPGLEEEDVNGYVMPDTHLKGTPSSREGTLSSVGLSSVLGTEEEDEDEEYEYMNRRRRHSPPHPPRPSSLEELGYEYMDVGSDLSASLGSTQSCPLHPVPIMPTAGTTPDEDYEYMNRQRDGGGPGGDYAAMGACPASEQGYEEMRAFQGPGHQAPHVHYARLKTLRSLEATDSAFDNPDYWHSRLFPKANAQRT
T2 sequence (P06756 31-1048): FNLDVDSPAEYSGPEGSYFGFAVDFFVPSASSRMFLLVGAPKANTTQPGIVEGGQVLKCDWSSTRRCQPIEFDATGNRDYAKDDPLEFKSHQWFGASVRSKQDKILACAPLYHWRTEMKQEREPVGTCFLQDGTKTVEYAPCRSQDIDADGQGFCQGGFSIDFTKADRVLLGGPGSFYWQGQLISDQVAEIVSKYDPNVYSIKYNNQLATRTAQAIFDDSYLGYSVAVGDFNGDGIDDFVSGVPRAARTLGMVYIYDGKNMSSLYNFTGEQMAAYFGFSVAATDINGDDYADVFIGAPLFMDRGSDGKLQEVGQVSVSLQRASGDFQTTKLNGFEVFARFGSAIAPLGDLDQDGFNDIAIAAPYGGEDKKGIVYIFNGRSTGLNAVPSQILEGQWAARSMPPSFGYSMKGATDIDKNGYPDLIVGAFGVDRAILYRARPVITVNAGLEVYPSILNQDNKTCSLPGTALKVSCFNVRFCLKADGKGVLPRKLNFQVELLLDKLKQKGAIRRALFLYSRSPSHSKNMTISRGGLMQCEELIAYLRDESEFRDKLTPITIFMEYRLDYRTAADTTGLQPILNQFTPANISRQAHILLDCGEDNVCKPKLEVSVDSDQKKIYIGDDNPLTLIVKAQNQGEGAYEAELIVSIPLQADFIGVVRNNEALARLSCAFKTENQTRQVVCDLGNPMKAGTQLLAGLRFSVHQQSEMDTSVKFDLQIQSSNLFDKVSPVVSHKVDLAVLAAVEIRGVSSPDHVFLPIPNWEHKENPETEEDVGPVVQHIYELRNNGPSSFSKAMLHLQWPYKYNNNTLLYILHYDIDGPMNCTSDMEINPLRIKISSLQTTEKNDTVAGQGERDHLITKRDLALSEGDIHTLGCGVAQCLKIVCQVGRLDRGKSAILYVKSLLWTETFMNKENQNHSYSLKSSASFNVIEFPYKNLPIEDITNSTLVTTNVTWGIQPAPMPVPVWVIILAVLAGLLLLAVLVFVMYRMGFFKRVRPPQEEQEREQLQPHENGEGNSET
T2 sequence (P05106 27-788): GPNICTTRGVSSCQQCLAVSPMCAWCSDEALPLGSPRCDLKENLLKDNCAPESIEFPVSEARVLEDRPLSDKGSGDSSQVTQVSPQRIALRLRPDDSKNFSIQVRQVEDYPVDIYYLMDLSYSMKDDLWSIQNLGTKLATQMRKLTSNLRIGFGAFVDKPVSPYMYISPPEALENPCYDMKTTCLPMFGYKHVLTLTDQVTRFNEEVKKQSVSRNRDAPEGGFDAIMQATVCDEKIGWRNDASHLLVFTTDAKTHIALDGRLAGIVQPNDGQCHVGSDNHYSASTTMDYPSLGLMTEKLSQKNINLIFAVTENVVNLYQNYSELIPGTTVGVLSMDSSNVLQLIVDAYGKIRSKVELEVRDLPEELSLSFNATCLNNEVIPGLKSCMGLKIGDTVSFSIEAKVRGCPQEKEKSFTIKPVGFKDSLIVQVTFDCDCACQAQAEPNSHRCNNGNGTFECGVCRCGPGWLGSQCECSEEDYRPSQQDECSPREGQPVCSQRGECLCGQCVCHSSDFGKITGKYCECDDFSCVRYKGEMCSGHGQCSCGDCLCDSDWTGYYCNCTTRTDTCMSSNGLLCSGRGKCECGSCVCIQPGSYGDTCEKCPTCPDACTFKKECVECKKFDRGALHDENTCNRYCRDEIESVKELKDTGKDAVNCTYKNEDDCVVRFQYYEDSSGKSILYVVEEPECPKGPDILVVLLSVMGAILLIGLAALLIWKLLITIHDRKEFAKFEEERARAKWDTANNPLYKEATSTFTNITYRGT
Method: FIG. 21. WT NRG1α (175-241) induced co-precipitation of integrin αvβ3 and ErbB3, while 3KE (175-241) is defective in this function. a) MCF-7 cells were serum-starved overnight and stimulated with WT or 3KE NRG1α (175-241) at indicated time points. In the present invention, 1 mg protein of cell lysate was used for immuno-precipitation of the αvβ3-ErbB3 complex with anti-ErbB3 antibody Immunoprecipitated materials were analyzed by Western blotting using antibodies specific to ErbB3, phosphorylated ErbB3, or integrin β3. The levels of ErbB3 phosphorylation were less with the 3KE mutant (175-241). Integrin αvβ3 was co-immuno-precipitated with the ErbB3 in 5-30 min upon stimulation with WT NRG1α (175-241), while the 3KE (175-241) mutant was defective in this function. b) Levels of β3 coprecipitation. In the present invention, the levels of β3 co-precipitation from digital images was quantified using ImageJ. The data are normalized with time 0 as 1 from two independent experiments.
Five minutes to 3 h after treatment with 5 nM WT or 3KE mutant NRG1α (175-241), MCF-7 cells were washed with ice-cold PBS and lysed with lysis buffer. The cell lysate was incubated with anti-ErbB3 overnight at 4° C. The immune complex was recovered by incubating with protein A Sepharose (GE Healthcare) for 1 hour at 4° C. and washed three times with wash buffer (20 mM HEPES (pH 7.4), 100 mM NaCl, 10% Glycerol, 0.5% NP-40, 1 mM MgCl2, 5 mM EDTA, 0.5% Triton X-100, 1 mM phenylmethylsulfonyl fluoride, 20 mM NaF, 1 mM Na3VO4, protease inhibitor cocktail (Sigma-Aldrich)). The immunoprecipitates were analyzed by western blotting with antibodies specific to integrin β3.

Row | Molecule | ERK1/2 activation in (mock-transfected) CHO cells [1] | ERK1/2 activation in (mock-transfected) CHO cells ([1]; listed as 3KE (175-222)) | Suppression of proliferation induced by wt NRG1 (175-222) in M21 cells ([2]; added together with 10 ng/ml wt NRG1 (175-222)) | Induction of proliferation of M21 melanoma cells [2] | Growth of breast cancer cells [3] | Competition for binding of biotinylated WT NRG1α (175-241) to immobilized soluble ErbB3 [4] | Co-precipitation of integrin β3 with ErbB3 in MCF-7 cells [5] | Competition for binding of biotinylated WT NRG1α (175-241) to immobilized soluble ErbB3 ([4]; listed as 3KE NRG1α (175-241)) | Competition for binding of biotinylated WT NRG1α (175-241) to immobilized soluble ErbB3 ([4]; listed as 3KE mutant of NRG1α (175-241)) | Levels of ErbB3 phosphorylation in anti-ErbB3 immunoprecipitates of MCF-7 cells ([5]; compared with WT NRG1α (175-241))
1 | 3KE (175-222): NRG1 (175-222) with Lys181/Lys185/Lys187 mutated to Glu; GTSHLVECAEEEETFCVNGGECFMVKDLSNPSRYLCKCQPGFTGARCT (SEQ ID NO:11) (integrin-binding site within human neuregulin, 3KE mutant, short version) | suppressed | suppressed ERK1/2 activation | suppressed the proliferation induced by wt NRG1 (175-222) | did not induce proliferation | did not |  |  |  |  | 
2 | wt NRG1 (175-222): wild type human neuregulin 1 fragment, EGF-like domain, residues 175-222 of SEQ ID NO:4 (SEQ ID NO:3) (GTSHLVKCAEKEKTFCVNGGECFMVKDLSNPSRYLCKCQPGFTGARCT; integrin-binding site within human neuregulin 1 EGF-like region and portion of alpha domain, residues 175-222 of human neuregulin 1 alpha) [reference compound] | enhanced ERK1/2 activation |  |  | did | enhanced the growth of breast cancer cells |  |  |  |  | 
3 | WT NRG1α (175-241): wild type human neuregulin 1 fragment, residues 175-241 of SEQ ID NO:4 (SEQ ID NO:5), entire EGF-like motif and α domain (protein, integrin-binding site within human neuregulin, residues 175-241of human neuregulin 1alpha, long version) GTSHLVKCAEKEKTFCVNGGECFMVKDLSNPSRYLCKCQPGFTGARCTENVPMKVQNQEKAEELYQK |  |  |  |  |  | at comparable levels | increased the amount of integrin β3 protein that co-precipitates with ErbB3 |  |  | 
4 | 3KE (175-241): NRG1α (175-241) with Lys181/Lys185/Lys187 mutated to Glu, SEQ ID NO:6 (3KE, long version) (protein, integrin-binding site within human neuregulin, residues 175-241of human neuregulin 1alpha, long version, 3KE mutant) GTSHLVECAEEEETFCVNGGECFMVKDLSNPSRYLCKCQPGFTGARCTENVPMKVQNQEKAEELYQK |  |  |  |  |  |  | did not | at comparable levels | binds to ErbB3 at levels comparable to WT NRG1α (175-241) | less
